Source: US8999967B2, “Tricyclic fused ring inhibitors of hepatitis C” (Presidio Pharmaceuticals, Inc., priority 2010, dated 2015)

Test system: HCV 1b_Huh-Luc/Neo-ET cell line (genotype 1b replicon in Huh 7 cells)
Experiment: HCV replicon assay (luciferase readout)
Assay type: cell-based
Details: Hepatitis C virus, HCV 1b replicon in Huh 7 cells, 72 h incubation, EC50 range class, read-out: Inhibition of HCV genotype 1b
Description: Biological activity of the compounds of the invention was determined using an HCV replicon assay. The HCV 1b_Huh-Luc/Neo-ET cell line persistently expressing a bicistronic genotype 1b replicon in Huh 7 cells was obtained from ReBLikon GMBH. This cell line was used to test compound inhibition using luciferase enzyme activity readout as a measurement of compound inhibition of replicon levels.
On Day 1 (the day after plating cells), each compound is added in triplicate to the cells. Plates are incubated for 72 h prior to determining luciferase levels. Enzyme activity was measured using a Bright-Glo Kit (cat. number E2620) manufactured by Promega Corporation. The following equation was used to generate a percent control value for each compound. % Control=(Compound Luciferase Level/Control Luciferase Level)*100
The EC50 value was determined using GraphPad Prism and the following equation: Y=Bottom asymptote+(Top asymptote-Bottom asymptote)/(1+10^((Log EC50−X)*HillSlope))
EC50 values of compounds are determined several times in the replicon assay to generate average EC50 values. […]

Row | Structure (SMILES) | EC50 [nM]
1 | COC(=O)N[C@H](C(=O)N1CCC[C@H]1c1ncc(-c2ccc3c(c2)Cc2ccc(-c4cnc([C@@H]5CCCN5C(=O)[C@@H](NC(=O)OC)[C@@H](C)OC)[nH]4)cc2O3)[nH]1)[C@@H](C)OC [Compound 30] | < 1
2 | CC[C@H](C)[C@H](NC(=O)OC)C(=O)N1CCC[C@H]1c1ncc(-c2ccc3c(c2)Cc2ccc(-c4cnc([C@@H]5CCCN5C(=O)[C@@H](NC(=O)OC)[C@@H](C)CC)[nH]4)cc2O3)[nH]1 [Compound 31] | < 1
3 | COC(=O)N[C@H](C(=O)N1CCC[C@H]1c1ncc(-c2ccc3c(c2)Cc2ccc(-c4cnc([C@@H]5CCCN5C(=O)[C@@H](NC(=O)OC)C5CCCC5)[nH]4)cc2O3)[nH]1)C1CCCC1 [Compound 32] | < 1
4 | COC(=O)N[C@H](C(=O)N1CCC[C@H]1c1ncc(-c2ccc3c(c2)Oc2ccc(-c4cnc([C@@H]5CCCN5C(=O)[C@@H](NC(=O)OC)C5CCCC5)[nH]4)cc2O3)[nH]1)C1CCCC1 [Compound 33] | < 1
5 | COC(=O)N[C@H](C(=O)N1CCC[C@H]1c1ncc(-c2ccc3c(c2)Oc2ccc(-c4cnc([C@@H]5CCCN5C(=O)[C@@H](NC(=O)OC)[C@@H](C)OC)[nH]4)cc2O3)[nH]1)[C@@H](C)OC [Compound 34] | < 1
6 | COC(=O)N[C@H](C(=O)N1CCC[C@H]1c1ncc(-c2ccc3c(c2)Oc2ccc(-c4cnc([C@@H]5CCCN5C(=O)[C@@H](NC(=O)OC)C5CCOCC5)[nH]4)cc2O3)[nH]1)C1CCOCC1 [Compound 35] | < 1
7 | COC(=O)N[C@H](C(=O)N1CSC[C@H]1c1ncc(-c2ccc3c(c2)Oc2ccc(-c4cnc([C@@H]5CSCN5C(=O)[C@@H](NC(=O)OC)C(C)C)[nH]4)cc2O3)[nH]1)C(C)C [Compound 36] | < 1
8 | COC(=O)N[C@@H](C(=O)N1CSC[C@H]1c1ncc(-c2ccc3c(c2)Oc2ccc(-c4cnc([C@@H]5CSCN5C(=O)[C@H](NC(=O)OC)c5ccccc5)[nH]4)cc2O3)[nH]1)c1ccccc1 [Compound 37] | < 1
9 | COC(=O)N[C@@H](C(=O)N[C@@H](C)c1ncc(-c2ccc3c(c2)Oc2ccc(-c4cnc([C@H](C)NC(=O)[C@H](NC(=O)OC)c5ccccc5)[nH]4)cc2O3)[nH]1)c1ccccc1 [Compound 38] | < 1
10 | COC(=O)N[C@H](C(=O)N[C@@H](C)c1ncc(-c2ccc3c(c2)Oc2ccc(-c4cnc([C@H](C)NC(=O)[C@@H](NC(=O)OC)C(C)C)[nH]4)cc2O3)[nH]1)C(C)C [Compound 39] | < 1
11 | COC(=O)N[C@H](C(=O)N1CCC[C@H]1c1ncc(-c2ccc3c(c2)Cc2cc(F)c(-c4cnc([C@@H]5CCCN5C(=O)[C@@H](NC(=O)OC)[C@@H](C)OC)[nH]4)cc2O3)[nH]1)[C@@H](C)OC [Compound 40] | < 1
12 | CC[C@H](C)[C@H](NC(=O)OC)C(=O)N1CCC[C@H]1c1ncc(-c2ccc3c(c2)Cc2cc(F)c(-c4cnc([C@@H]5CCCN5C(=O)[C@@H](NC(=O)OC)[C@@H](C)OC)[nH]4)cc2O3)[nH]1 [Compound 41] | < 1
13 | COC(=O)N[C@H](C(=O)N1CCC[C@H]1c1ncc(-c2ccc3c(c2)Cc2cc(F)c(-c4cnc([C@@H]5CCCN5C(=O)[C@@H](NC(=O)OC)[C@@H](C)OC)[nH]4)cc2O3)[nH]1)C1CCOCC1 [Compound 42] | < 1
14 | COC[C@H](NC(=O)OC)C(=O)N1CCC[C@H]1c1ncc(-c2ccc3c(c2)Cc2cc(F)c(-c4cnc([C@@H]5CCCN5C(=O)[C@@H](NC(=O)OC)[C@@H](C)OC)[nH]4)cc2O3)[nH]1 [Compound 43] | < 1
15 | COC(=O)N[C@H](C(=O)N1CCC[C@H]1c1ncc(-c2cc3c(cc2F)Cc2cc(-c4cnc([C@@H]5CCCN5C(=O)[C@@H](NC(=O)OC)C5CCOCC5)[nH]4)ccc2O3)[nH]1)C(C)C [Compound 44] | < 1
16 | COC[C@H](NC(=O)OC)C(=O)N1CCC[C@H]1c1ncc(-c2ccc3c(c2)Cc2cc(F)c(-c4cnc([C@@H]5CCCN5C(=O)[C@@H](NC(=O)OC)C(C)C)[nH]4)cc2O3)[nH]1 [Compound 45] | < 1
17 | CC[C@H](C)[C@H](NC(=O)OC)C(=O)N1CCC[C@H]1c1ncc(-c2ccc3c(c2)Oc2ccc(-c4cnc([C@@H]5CCCN5C(=O)[C@@H](NC(=O)OC)[C@@H](C)CC)[nH]4)cc2O3)[nH]1 [Compound 46] | < 1
18 | COC(=O)N[C@H](C(=O)N1CCCC[C@H]1c1ncc(-c2ccc3c(c2)Oc2ccc(-c4cnc([C@@H]5CCCCN5C(=O)[C@@H](NC(=O)OC)C(C)C)[nH]4)cc2O3)[nH]1)C(C)C [Compound 47] | < 1
19 | COC(=O)N[C@@H](C(=O)N1CCCC[C@H]1c1ncc(-c2ccc3c(c2)Oc2ccc(-c4cnc([C@@H]5CCCCN5C(=O)[C@H](NC(=O)OC)c5ccccc5)[nH]4)cc2O3)[nH]1)c1ccccc1 [Compound 48] | < 1

Row | Structure (SMILES) | EC50 [nM]
20 | COC(=O)N[C@H](C(=O)N1CCC[C@H]1c1ncc(-c2ccc3oc4cc(-c5cnc([C@@H]6CCCN6C(=O)[C@@H](NC(=O)OC)C(C)C)[nH]5)c(Cl)cc4c(=O)c3c2)[nH]1)C(C)C [Compound 49] | < 1
21 | COC(=O)N[C@H](C(=O)N1CCC[C@H]1c1ncc(-c2ccc3oc4cc(-c5cnc([C@@H]6CCCN6C(=O)[C@@H](NC(=O)OC)[C@@H](C)OC)[nH]5)c(Cl)cc4c(=O)c3c2)[nH]1)[C@@H](C)OC [Compound 50] | < 1
22 | CC[C@H](C)[C@H](NC(=O)OC)C(=O)N1CCC[C@H]1c1ncc(-c2ccc3oc4cc(-c5cnc([C@@H]6CCCN6C(=O)[C@@H](NC(=O)OC)[C@@H](C)CC)[nH]5)c(Cl)cc4c(=O)c3c2)[nH]1 [Compound 51] | < 1
23 | COC(=O)N[C@H](C(=O)N1CCC[C@H]1c1ncc(-c2ccc3oc4cc(-c5cnc([C@@H]6CCCN6C(=O)[C@@H](NC(=O)OC)C6CCOCC6)[nH]5)c(Cl)cc4c(=O)c3c2)[nH]1)C1CCOCC1 [Compound 52] | < 1
24 | CC[C@H](C)[C@H](NC(=O)OC)C(=O)N1CCC[C@H]1c1ncc(-c2ccc3c(c2)Cc2cc(F)c(-c4cnc([C@@H]5CCCN5C(=O)[C@@H](NC(=O)OC)[C@@H](C)CC)[nH]4)cc2O3)[nH]1 [Compound 53] | < 1
25 | C=CC[C@H](NC(=O)OC)C(=O)N1CCC[C@H]1c1ncc(-c2ccc3c(c2)Oc2ccc(-c4cnc([C@@H]5CCCN5C(=O)[C@H](CC=C)NC(=O)OC)[nH]4)cc2O3)[nH]1 [Compound 55] | < 1
26 | C#CC[C@H](NC(=O)OC)C(=O)N1CCC[C@H]1c1ncc(-c2ccc3c(c2)Oc2ccc(-c4cnc([C@@H]5CCCN5C(=O)[C@H](CC#C)NC(=O)OC)[nH]4)cc2O3)[nH]1 [Compound 56] | < 1
27 | [2H]C([2H])([2H])C([2H])(C([2H])([2H])[2H])[C@]([2H])(NC(=O)OC)C(=O)N1CCC[C@H]1c1ncc(-c2ccc3c(c2)Oc2ccc(-c4cnc([C@@H]5CCCN5C(=O)[C@@]([2H])(NC(=O)OC)C([2H])(C([2H])([2H])[2H])C([2H])([2H])[2H])[nH]4)cc2O3)[nH]1 [Compound 57] | < 1
28 | COC(=O)N[C@@H](C(=O)N1CCC[C@H]1c1ncc(-c2ccc3oc4cc(-c5cnc([C@@H]6CCCN6C(=O)[C@H](NC(=O)OC)c6ccccc6)[nH]5)c(Cl)cc4c(=O)c3c2)[nH]1)c1ccccc1 [Compound 58] | < 1
29 | CC[C@H](C)[C@H](NC(=O)OC)C(=O)N1CCC[C@H]1c1ncc(-c2cc3c(cc2F)Cc2cc(-c4cnc([C@@H]5CCCN5C(=O)[C@@H](NC(=O)OC)C5CCOCC5)[nH]4)ccc2O3)[nH]1 [Compound 59] | < 1
30 | CC[C@H](C)[C@H](NC(=O)OC)C(=O)N1CCC[C@H]1c1ncc(-c2cc3c(cc2F)Cc2cc(-c4cnc([C@@H]5CCCN5C(=O)[C@H](COC)NC(=O)OC)[nH]4)ccc2O3)[nH]1 [Compound 60] | < 1
31 | COC(=O)N[C@H](C(=O)N1CCC[C@H]1c1ncc(-c2ccc3c(c2)Cc2cc(Cl)c(-c4cnc([C@@H]5CCCN5C(=O)[C@@H](NC(=O)OC)C(C)C)[nH]4)cc2O3)[nH]1)C(C)C [Compound 61] | < 1
32 | COC(=O)N[C@H](C(=O)N1CCC[C@H]1c1ncc(-c2ccc3c(c2)Cc2cc(Cl)c(-c4cnc([C@@H]5CCCN5C(=O)[C@@H](NC(=O)OC)[C@@H](C)OC)[nH]4)cc2O3)[nH]1)[C@@H](C)OC [Compound 62] | < 1
33 | CC[C@H](C)[C@H](NC(=O)OC)C(=O)N1CCC[C@H]1c1ncc(-c2ccc3c(c2)Cc2cc(Cl)c(-c4cnc([C@@H]5CCCN5C(=O)[C@@H](NC(=O)OC)[C@@H](C)CC)[nH]4)cc2O3)[nH]1 [Compound 63] | < 1
34 | COC(=O)N[C@H](C(=O)N1CCOC[C@H]1c1ncc(-c2ccc3c(c2)Oc2ccc(-c4cnc([C@@H]5COCCN5C(=O)[C@@H](NC(=O)OC)C(C)C)[nH]4)cc2O3)[nH]1)C(C)C [Compound 64] | < 1
35 | COC(=O)N[C@@H](C(=O)N1CCOC[C@H]1c1ncc(-c2ccc3c(c2)Oc2ccc(-c4cnc([C@@H]5COCCN5C(=O)[C@H](NC(=O)OC)c5ccccc5)[nH]4)cc2O3)[nH]1)c1ccccc1 [Compound 65] | < 1
36 | COC(=O)N[C@H](C(=O)N1CSC[C@H]1c1ncc(-c2ccc3c(c2)Oc2ccc(-c4cnc([C@@H]5CSCN5C(=O)[C@@H](NC(=O)OC)C5CCCC5)[nH]4)cc2O3)[nH]1)C1CCCC1 [Compound 66] | < 1
37 | CC[C@H](C)[C@H](NC(=O)OC)C(=O)N1CSC[C@H]1c1ncc(-c2ccc3c(c2)Oc2ccc(-c4cnc([C@@H]5CSCN5C(=O)[C@@H](NC(=O)OC)[C@@H](C)CC)[nH]4)cc2O3)[nH]1 [Compound 67] | < 1
38 | CC[C@H](C)[C@H](NC(=O)OC)C(=O)N1CCC[C@H]1c1ncc(-c2ccc3c(c2)Oc2ccc(-c4cnc([C@@H]5CCCN5C(=O)[C@@H](NC(=O)OC)[C@@H](C)CC)[nH]4)cc2C3(C)C)[nH]1 [Compound 70] | < 1
